Measurements from US6846804B2 (priority 2000, dated 2005).

How the values were obtained:
[1] = tested on: spores of Bacillus; conditions: cited from earlier work
[2] = tested on: B. cereus T spores; assay type: cell-based, Bacillus cereus T

For Sublancin, the “inhibition of outgrowth of spores” value [1] is given as “highly active” and the “halo (inhibition of spore germination/outgrowth)” value [2] is given as “clear halo”.
